Measurements from patent publication US20200078379A1, “DEFEROXAMINE DERIVATIVES AS MEDICAMENTS” (BIOTECHNOLOGICKY USTAV AV CR, V.V.I., priority 2017, published 2020).

What was measured:
MCF7 cells [1] = assay: cellular proliferation in real time, Xcelligence technology; assay type: cell-based
Procedure: (§1) The ability of compound 2 to affect the proliferation and cell death induction in real time was monitored by the Xcelligence technology that detects changes in electrical impedance related to the cell number. In brief, special 16-well e-plates containing gold electrodes were filled with medium, blank values were recorded, and then 5.000 cells per well were seeded in the plate and let to attach for 2 hours, followed by the addition of compounds. The electrical impedance was then monitored over time in real-time every 15 minutes. In this case a line is drawn that reflects the cell number over time. […] We have seen a clear inhibition of proliferation with compound 2 at 1 μM, complete block of proliferation at 2 μM concentration, while the cytotoxic effect is seen at 5 μM (Table 9).

[2] = tested on: murine triple negative breast cancer cells line 4T1; assay: tumor growth in vivo, 4T1 model; parameters: species or system Balb/c gamma mice; details: for Relative tumor size: 4T1, 8 mg/kg i.p. twice per week
Procedure: In order to define the effect of compound 2 on tumor growth and progression in vivo, we tested its effect on the model of syngeneic murine triple negative breast cancer cells line 4T1, Balb/c gamma mice being the […] host. Mice were injected with 1 million of cells s.c. on the right flank. After appearance of tumors (15-60 mm^3) mice were randomized into two separate group, one receiving corn oil (control) and one receiving compound 2 at 8 mg/kg. Tumor progression was then monitored by ultrasound imaging Vevo770 and mice received the treatment twice per week, i.p. in approximately 100 ul of corn oil.

MCF7 cells [3] = assay: cellular migration into scratch, JULI FL; assay type: cell-based, human
Procedure: (§2) In order to test the effect of compound 2 on cellular migration, we have seeded MCF7 or MDA-MB-231 cells in 12 well plates, let them reach confluence and then introduced a scratch in the monolayer with a 10 μl pipette tip.

MDA-MB-231 cells [4] = assay: cellular migration into scratch, JULI FL; assay type: cell-based, human
Procedure: as §2

BT474 cells = assay: AnnexinV/PI cell death assay; assay type: cell-based; details: 48 hrs
Procedure: (§3) To confirm such findings by an independent method, cell death-inducing potency (cytotoxic efficacy) of DFO and compound 2 have been tested via annexin V/PI staining commonly used as a measure of apoptotic/necrotic cell death. Briefly, cells were seeded in 12-well plate at 100,000 per well, incubated with the selected compounds for 48 hours, then floating cells were spun, adherent cells trypsinized and spun as well followed by the staining with AnnexinV-FITC and PI probes. Cells were then washed with PBS and measured via Fluorescence Activated Sorter.

BT549 cells = assay: AnnexinV/PI cell death assay; assay type: cell-based; details: 48 hrs
Procedure: as §3

non malignant cells (BJ) = assay: cellular proliferation in real time, Xcelligence technology; assay type: cell-based, human
Procedure: as §1

T47D cells = assay: AnnexinV/PI cell death assay; assay type: cell-based; details: 48 hrs
Procedure: as §3
Since compound 2 is an iron chelator, we have evaluated the effect of pretreating compound 2 with iron. at a 1:1 ratio by using the Annexin V/PI staining as in example 7.

MDA-MB-231 cells [5] = assay: AnnexinV/PI cell death assay; assay type: cell-based, human; details: 48 hrs
Procedure: as §3

## CC(=O)N(O)CCCCCNC(=O)CCC(=O)N(O)CCCCCNC(=O)CCC(=O)N(O)CCCCCN(CCCCCCCCCC[P+](c1ccccc1)(c1ccccc1)c1ccccc1)CCCCCCCCCC[P+](c1ccccc1)(c1ccccc1)c1ccccc1.[Cl-].[Cl-] [Compound 2, Triphenyl(3,14,25-trihydroxy-2,10,13,21,24-pentaoxo-31-(10-(triphenylphosphonio)decyl)-3,9,14,20,25,31-hexaazahentetracontan-41-yl)phosphonium chloride]
MCF7 cells [1]; MCF7, 0-15 h, 1 μM
  slope of the line (relative number of cells in relation to time): 0.32
MCF7 cells [1]; MCF7, 0-15 h, 2 μM
  slope of the line (relative number of cells in relation to time): 0.40
MCF7 cells [1]; MCF7, 0-15 h, 5 μM
  slope of the line (relative number of cells in relation to time): 0.31
MCF7 cells [1]; MCF7, 0-36 h, 1 μM
  slope of the line (relative number of cells in relation to time): 0.35
MCF7 cells [1]; MCF7, 0-36 h, 2 μM
  slope of the line (relative number of cells in relation to time): −0.01
MCF7 cells [1]; MCF7, 0-36 h, 5 μM
  slope of the line (relative number of cells in relation to time): −0.47
MCF7 cells [1]; Xcelligence, MCF7
  concentration at which the cytotoxic effect is seen: 5 µM
  concentration with clear inhibition of proliferation: 1 µM
  concentration with complete block of proliferation: 2 µM
[2]; 4T1, 8 mg/kg
  effect on relative tumor growth, in words: significantly reduces relative tumor growth
[2]; Day 0
  Relative tumor size: 1.0
[2]; Day 4
  Relative tumor size: 1.3
[2]; Day 7
  Relative tumor size: 1.1
[2]; Day 11
  Relative tumor size: 1.4
[2]; Day 14
  Relative tumor size: 1.6
[2]; Day 18
  Relative tumor size: 2.5
MCF7 cells [3]; MCF7, 0 h, 1 μM
  mean percentage of non-invaded portion of the scratch: 100 (4.1) %
MCF7 cells [3]; MCF7, 0 h, 2 μM
  mean percentage of non-invaded portion of the scratch: 100 (4.8) %
MCF7 cells [3]; MCF7, 0 h, 5 μM
  mean percentage of non-invaded portion of the scratch: 100 (4.4) %
MCF7 cells [3]; MCF7, 24 h, 1 μM
  mean percentage of non-invaded portion of the scratch: 78.8 (5.2) %
MCF7 cells [3]; MCF7, 24 h, 2 μM
  mean percentage of non-invaded portion of the scratch: 79.2 (1.1) %
MCF7 cells [3]; MCF7, 24 h, 5 μM
  mean percentage of non-invaded portion of the scratch: 83.8 (0.6) %
MCF7 cells [3]; MCF7, 48 h, 1 μM
  mean percentage of non-invaded portion of the scratch: 61.8 (5.3) %
MCF7 cells [3]; MCF7, 48 h, 2 μM
  mean percentage of non-invaded portion of the scratch: 66.1 (1.1) %
MCF7 cells [3]; MCF7, 48 h, 5 μM
  mean percentage of non-invaded portion of the scratch: 78.8 (0.6) %
MDA-MB-231 cells [4]; MDA-MB-231, 0 h, 1 μM
  mean percentage of non-invaded portion of the scratch: 100 (5.5) %
MDA-MB-231 cells [4]; MDA-MB-231, 0 h, 2 μM
  mean percentage of non-invaded portion of the scratch: 100 (7.4) %
MDA-MB-231 cells [4]; MDA-MB-231, 0 h, 5 μM
  mean percentage of non-invaded portion of the scratch: 100 (6.5) %
MDA-MB-231 cells [4]; MDA-MB-231, 24 h, 1 μM
  mean percentage of non-invaded portion of the scratch: 40.7 (8.9) %
MDA-MB-231 cells [4]; MDA-MB-231, 24 h, 2 μM
  mean percentage of non-invaded portion of the scratch: 42.7 (8.0) %
MDA-MB-231 cells [4]; MDA-MB-231, 24 h, 5 μM
  mean percentage of non-invaded portion of the scratch: 48.4 (8.9) %
MDA-MB-231 cells [4]; MDA-MB-231, 48 h, 1 μM, cells started to die at 48 hrs
  mean percentage of non-invaded portion of the scratch: 61.7 (6.7) %
MDA-MB-231 cells [4]; MDA-MB-231, 48 h, 2 μM, cells started to die at 48 hrs
  mean percentage of non-invaded portion of the scratch: 76.2 (13.3) %
MDA-MB-231 cells [4]; MDA-MB-231, 48 h, 5 μM, cells started to die at 48 hrs
  mean percentage of non-invaded portion of the scratch: 98.5 (9.1) %
BT474 cells; BT474, 5 μM
  mean percentage of dead cells (AnnexinV/PI): 18.6%
BT474 cells; BT474, 10 μM
  mean percentage of dead cells (AnnexinV/PI): 39.9%
BT474 cells; BT474, 20 μM
  mean percentage of dead cells (AnnexinV/PI): 92.5%
BT549 cells; BT549, 5 μM
  mean percentage of dead cells (AnnexinV/PI): 31.8%
BT549 cells; BT549, 10 μM
  mean percentage of dead cells (AnnexinV/PI): 52.3%
BT549 cells; BT549, 20 μM
  mean percentage of dead cells (AnnexinV/PI): 80.4%
Non malignant cells (BJ); 0-15 h, 1 μM
  slope of the line (relative number of cells in relation to time): 1.14
Non malignant cells (BJ); 0-15 h, 2 μM
  slope of the line (relative number of cells in relation to time): 1.07
Non malignant cells (BJ); 0-15 h, 5 μM
  slope of the line (relative number of cells in relation to time): 0.83
Non malignant cells (BJ); 0-36 h, 1 μM
  slope of the line (relative number of cells in relation to time): 1.08
Non malignant cells (BJ); 0-36 h, 2 μM
  slope of the line (relative number of cells in relation to time): 0.90
Non malignant cells (BJ); 0-36 h, 5 μM
  slope of the line (relative number of cells in relation to time): 0.47
Non malignant cells (BJ); Xcelligence, 5 μM
  effect on cellular proliferation of non-malignant BJ cells, in words: very mild and statistically non-significant effect
T47D cells; 5 μM
  mean percentage of dead cells (AnnexinV/PI): 38.3 (5.8) %
T47D cells; 10 μM
  mean percentage of dead cells (AnnexinV/PI): 41.2 (3.1) %
T47D cells; 20 μM
  mean percentage of dead cells (AnnexinV/PI): 93.6 (1.3) %
MDA-MB-231 cells [5]; MDA-MB-231, 5 μM
  mean percentage of dead cells (AnnexinV/PI): 39.8%
MDA-MB-231 cells [5]; MDA-MB-231, 10 μM
  mean percentage of dead cells (AnnexinV/PI): 78.5%
MDA-MB-231 cells [5]; MDA-MB-231, 20 μM
  mean percentage of dead cells (AnnexinV/PI): 98.0%
